Data as given in article PMC9032776, “Towards Selective Binding to the GLUT5 Transporter: Synthesis, Molecular Dynamics and In Vitro Evaluation of Novel C-3-Modified 2,5-Anhydro-D-mannitol Analogs” (Pharmaceutics, 2022).
Like-named read-outs stand apart in the source and are kept apart here. Each block holds one molecule with its values, some of them ahead of it.

What was measured:
GLUT5 [1] = target: T1, GLUT5 (Mus musculus, UniProt Q9WV38); conditions: cited from earlier work
T1 construct: GLUT5-expressing murine mammary carcinoma cancer cells (EMT6); endogenous in cells; host or cells: EMT6 murine mammary carcinoma cells
T1 sequence (Q9WV38 1-501): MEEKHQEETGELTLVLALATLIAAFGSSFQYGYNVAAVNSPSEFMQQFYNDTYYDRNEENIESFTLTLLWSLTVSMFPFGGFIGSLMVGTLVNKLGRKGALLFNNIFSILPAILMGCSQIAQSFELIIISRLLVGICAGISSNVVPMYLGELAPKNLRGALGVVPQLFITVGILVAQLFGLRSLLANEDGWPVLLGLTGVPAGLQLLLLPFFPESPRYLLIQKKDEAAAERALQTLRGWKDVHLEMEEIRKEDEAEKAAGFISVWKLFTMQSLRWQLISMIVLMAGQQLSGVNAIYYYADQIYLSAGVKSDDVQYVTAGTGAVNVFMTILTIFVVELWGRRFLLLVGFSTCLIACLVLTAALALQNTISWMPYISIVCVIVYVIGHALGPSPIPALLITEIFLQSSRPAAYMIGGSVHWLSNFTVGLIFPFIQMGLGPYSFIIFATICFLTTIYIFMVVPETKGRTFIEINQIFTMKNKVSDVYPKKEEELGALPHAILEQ

GLUT5 [2] = target: T1, GLUT5; assay: In vitro inhibition of 6-[18F]FDF cell uptake (competition) in EMT6 cells; type: cell-based, murine; conditions: for IC50: 60 min incubation, glucose-free Krebs-Ringer buffer, mean ± SEM from n data points out of 2-4 experiments, read-out: IC50 (mM) against 6-[18F]FDF uptake into EMT6 cells; for Inhibition of 6-[18F]FDF uptake into EMT6 cells (in words): selected concentration range 10^-8-10^-3 and 3 x 10^-2 M; for Fold better inhibition of 6-[18F]FDF uptake relative to 6-FDF: compared with reference 6-FDF
Procedure: EMT6 cells were grown to confluence in 12-well cell culture plates with media renewal every 2 days. One hour prior to the experiment, cell culture media was removed and the plates were washed twice with glucose-free Krebs–Ringer buffer solution. To each well, 1 mL of glucose-free Krebs–Ringer buffer solution was added and incubation at 37 °C was continued for 1 h under the glucose-free condition. After one hour, Krebs–Ringer buffer was removed.
After 60 min incubation time, radiotracer uptake was stopped with 1 mL of ice-cold PBS, and the cells were washed twice with PBS and lysed in 0.4 mL radioimmunoprecipitation assay buffer (RIPA buffer). Radioactivity in the cell lysates was then determined as counts per minute (CPM) using a WIZARD2 automatic γ-counter (Perkin Elmer, Waltham, MA, USA) and converted to the radioactivity dose SI unit Becquerel (Bq). Data was analyzed as percentage of maximum uptake of 6-[^18F]FDF. Graphs were constructed using GraphPad Prism 5.0 (GraphPad Software, San Diego, CA, USA) and half-maximum inhibition concentrations (IC50) were determined by graphical analysis of the concentration-inhibition curves.
To analyze the interaction of these novel C-3-modified 2,5-anhydro-D-mannitol analogs with GLUT5, in vitro experiments were carried out in GLUT5-expressing murine mammary carcinoma cancer cells (EMT6) to determine how the varied substitution patterns would impact GLUT5 binding. Furthermore, fructose derivative 6-FDF was used as the reference compound as it was analyzed for its uptake profile through GLUT5 in the past. […] Therefore, when designing novel specific inhibitors for the GLUT5 transporter, it would be reasonable to expect their GLUT5 transport also in a millimolar concentration range, especially when using a radiometric assay that was established with radiolabeled fructose derivative 6-[^18F]FDF in murine EMT6 breast cancer cells and with inhibition by D-fructose and reference compound 6-FDF as internal controls.

GLUT5 [3] = conditions: read-out: Affinity (Km) of fructose transport through GLUT5; D-[14C]fructose; GLUT5 (human isoform)-expressing oocytes or brush-border membrane vesicles from rat and human intestine; cited from earlier work
[4] = Solubility in Krebs-Ringer buffer; type: physicochemical
GLUT2 = test system: GLUT2; design: method as in PMID 29142019; conditions: murine EMT6 cells; read-out: IC50 against uptake of [18F]FDG; cited from earlier work
GLUT5 [5] = test system: GLUT5; design: method as in PMID 27074918; conditions: MCF7 human breast cancer cells; read-out: IC50 against D-[14C]fructose; cited from earlier work
GLUT5 [6] = test system: GLUT5; design: method as in PMID 27074918; conditions: proteoliposome GLUT5 expression system; read-out: IC50 against D-[14C]fructose; cited from earlier work
GLUT5 [7] = conditions: human MCF7 breast cancer cells; cited from earlier work
GLUT1 = test system: GLUT1; design: method as in PMID 18398011, PMID 9299540, PMID 15457374, doi:10.1002/bmb.2003.494031030227; conditions: cited from earlier work
GLUT5 [8] = test system: GLUT5; design: method as in PMID 26306809; conditions: read-out: IC50 against D-[14C]fructose; cited from earlier work

Structure (SMILES): OC[C@H]1O[C@H](CF)[C@@H](O)[C@@H]1O [1-FDAM, 1-deoxy-1-fluoro-2,5-anhydro-mannitol]
- IC50 (GLUT5 [1]; estimated earlier by the authors, read-out: IC50 against the uptake of the probe 6-[18F]FDF): ~20 mM

- IC50 (GLUT5 [2]): 17 ± 0.75 mM
Structure (SMILES): O=C(CO)[C@@H](O)[C@H](O)[C@H](O)CF [6-FDF, 6-deoxy-6-fluoro-D-fructose]
- IC50 (GLUT5 [1]; murine EMT6 breast cancer cells, read-out: IC50 (half-maximum inhibition concentration) against 6-[18F]FDF uptake): 19 mM

- IC50 (GLUT5 [2]): ~6 mM
Structure (SMILES): O=S(=O)(N[C@H]1[C@H](O)[C@@H](CO)O[C@@H]1CO)c1ccc(F)cc1 [Compound 4, 3-deoxy-3-[N-(4-fluorobenzenesulfonamide)amino]-2,5-anhydro-D-mannitol]

Structure (SMILES): O=S(=O)(N[C@H]1[C@H](O)[C@@H](CO)O[C@@H]1CO)c1ccc(F)cc1C(F)(F)F [Compound 5, 3-deoxy-3-[N-(4-fluoro-2-(trifluoromethyl)benzenesulfonamide)amino]-2,5-anhydro-D-mannitol]
- Inhibition of 6-[18F]FDF uptake into EMT6 cells (in words) (GLUT5 [2]): failed to inhibit 6-[^18F] FDF uptake transport at all

- IC50 (GLUT5 [2]): 2.29 ± 0.18 mM
- Fold better inhibition of 6-[18F]FDF uptake relative to 6-FDF (GLUT5 [2]): fivefold stronger inhibitory effect
Structure (SMILES): CN(C)c1cccc2c(S(=O)(=O)N[C@H]3[C@H](O)[C@@H](CO)O[C@@H]3CO)cccc12 [Compound 6, 3-deoxy-3-[N-(5-(dimethylamino)naphthalene-1-sulfonamide)amino]-2,5-anhydro-D-mannitol]

- Inhibition of 6-[18F]FDF uptake into EMT6 cells (in words) (GLUT5 [2]): no effect on 6-[^18F]FDF uptake
Structure (SMILES): OC[C@H]1O[C@H](CO)[C@@H](NC(=S)Nc2ccc(F)cc2)[C@@H]1O [Compound 7, 3-deoxy-3-[N-(1-(4-fluorophenyl)thiourea)amino]-2,5-anhydro-D-mannitol]

- IC50 (GLUT5 [2]): ~20 mM
Structure (SMILES): O=C(O)c1cc(NC(=S)N[C@H]2[C@H](O)[C@@H](CO)O[C@@H]2CO)ccc1-c1c2ccc(=O)cc-2oc2cc(O)ccc12 [Compound 8]

Structure (SMILES): O=C(N[C@H]1[C@H](O)[C@@H](CO)O[C@@H]1CO)c1ccc(F)cc1 [Compound 9, 3-deoxy-3-[N-(4-fluorobenzamide)amino]-2,5-anhydro-D-mannitol]
- Inhibition of 6-[18F]FDF uptake into EMT6 cells (in words) (GLUT5 [2]): no inhibitory activity in the selected concentration range

- Fold better inhibition of 6-[18F]FDF uptake relative to 6-FDF (GLUT5 [2]): ~ 10 fold
Structure (SMILES): O=C(CO/N=C/c1ccc(F)cc1)N[C@H]1[C@H](O)[C@@H](CO)O[C@@H]1CO [Compound 10, 3-deoxy-3-[N-(2-(((4-fluorobenzylidene)amino)oxy)acetamide)amino]-2,5-anhydro-D-mannitol]

- IC50 (GLUT5 [2]): 1.71 ± 0.08 mM
- Fold better inhibition of 6-[18F]FDF uptake relative to 6-FDF (GLUT5 [2]): ~ 10 fold
Structure (SMILES): O=C(N[C@H]1[C@H](O)[C@@H](CO)O[C@@H]1CO)c1cc2ccc(OCCF)cc2oc1=O [Compound 11, 3-deoxy-3-[N-(7-(2-fluoroethoxy)-2-oxo-2H-chromene-3-carboxamide)amino]-2,5-anhydro-D-mannitol]

Structure (SMILES): O=C(CO)[C@@H](O)[C@H](O)[C@H](O)CO [Fructose, D-fructose]
- Km (GLUT5 [3]): 11 to 15 mM
- Solubility [4]: freely soluble
- IC50 (GLUT2): 80 mM

Structure (SMILES): CS(=O)(=O)c1ccc(Nc2ccc3c(c2)OCO3)c([N+](=O)[O-])c1 [MSNBA, N-(4-methanesulfonyl-2-nitrophenyl)-2H-1,3-benzodioxol-5-amine]
- IC50 (GLUT5 [5]): 5.8 mM
- IC50 (GLUT5 [6]): 0.1 mM

Structure (SMILES): O=[N+]([O-])c1ccc(NC[C@H]2O[C@H](CO)[C@@H](O)[C@@H]2O)c2nonc12 [NBDM, 1-[N-(7-nitrobenz-2-oxa-1,3-diazole-4-yl)amino]-2,5-anhydro-D-mannitol]
- Ki (GLUT5 [7]): 2.3 to 2.7 mM
- Transport efficiency through GLUT5 relative to D-fructose (GLUT5 [7]): transported twice as efficiently as D-fructose

Structure (SMILES): OC[C@H]1OC(O)[C@H](O)[C@@H](O)[C@@H]1O (stereo partly shown) [glucose]
- Affinity of glucose transport through GLUT1 (K4) (GLUT1): 1 to 2 mM

Structure (SMILES): C=C1C[C@@]23CC[C@H]4[C@@](C)(CCC[C@@]4(C)C(=O)O[C@@H]4O[C@H](CO)[C@@H](O)[C@H](O)[C@H]4O)[C@@H]2CC[C@]1(O[C@@H]1O[C@H](CO)[C@@H](O)[C@H](O)[C@H]1O)C3 [rubusoside]
- IC50 (GLUT5 [8]): 10.3 mM
